The text below walks through data of patent US20060084135A1, “Compositions for manipulating the lifespan and stress response of cells and organisms” (priority 2003, published 2006).

In data set [1] the test system is S. cerevisiae. In words: Yeast replicative lifespan. It is filed as cell-based. The following applies: 10 μM, wild type. The protocol: Average lifespan was determined for wild type untreated (□), quercetin (◯) and piceatannol (●).
The subject of data set [2] is S. cerevisiae. In words: Yeast chronological lifespan. The following applies: 10 μM or 100 μM. Type of data set: cell-based.
Data set [3] can be described thus: Stability in solution (decay of SIRT1 fold-stimulation of aged stock). Type of data set: physicochemical. The following applies: ethanol stock solution; ethanol stock 2.5 mM, room temperature, glass vials, nitrogen; assayed at 50 μM; read-out: Stability in Solution t1/2 (converted). From the text: The fold-stimulation (ratio to control) obtained with a compound diluted from an aged stock solution was compared to an identical dilution from a stock solution freshly prepared from the solid compound. “t1/2” is defined as the time required for the SIRT1 fold-stimulation of the compound from the aged solution to decay to one-half of that obtained from a freshly prepared solution. […] Stocks were aged by storage at room […] temperature, in glass vials, under a nitrogen atmosphere.

The test system of data set [4] is W303AR cells (rDNA locus RDN1). In words: Ribosomal DNA recombination frequency. It is filed as cell-based, S. cerevisiae.
A further data set has as its target T1, human recombinant SIRT2 (Homo sapiens, UniProt Q8IXJ6).
T1 sequence (Q8IXJ6 1-389): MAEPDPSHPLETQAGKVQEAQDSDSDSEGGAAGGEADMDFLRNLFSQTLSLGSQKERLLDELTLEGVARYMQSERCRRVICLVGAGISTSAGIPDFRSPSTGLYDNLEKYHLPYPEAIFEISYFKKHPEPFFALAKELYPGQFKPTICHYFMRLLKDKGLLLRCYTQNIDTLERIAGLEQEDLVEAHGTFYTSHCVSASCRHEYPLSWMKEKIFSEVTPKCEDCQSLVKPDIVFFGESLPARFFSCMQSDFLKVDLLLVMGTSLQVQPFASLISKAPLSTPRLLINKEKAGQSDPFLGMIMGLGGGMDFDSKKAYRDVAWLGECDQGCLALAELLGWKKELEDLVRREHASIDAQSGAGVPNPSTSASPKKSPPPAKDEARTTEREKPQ
In words: SIRT2 deacetylation assay (Fluor de Lys-SIRT2). The following applies: increasing concentrations; 25 μM Fluor de Lys-SIRT2, 25 μM NAD+. It is filed as biochemical. The text has this: Yeast Sir2 and human SIRT1 are very homologous and differ from human SIRT2 by the addition of an N-terminal domain that is absent in SIRT2. […] Thus, based on the difference in structure of SIRT1 and SIRT2, i.e., the absence of an N-terminal domain, it is believed that the N-terminal domain of SIRT1 and Sir2 is necessary for activation by the compounds described herein. In particular, it is likely that the activator compounds described herein interact with the N-terminal portion of sirtuins. The N-terminal portion of SIRT1 that is necessary for the action of the compounds is from about amino acid 1 to about amino acid 176, and that of Sir2 is from about amino acid 1 to about amino acid 175.

Data set [5] has as its system S. cerevisiae. Nature of the data set: Yeast replicative lifespan. Type of data set: cell-based.
The target of a further data set is T2, recombinant human SIRT1 (Homo sapiens, UniProt Q96EB6).
T2 sequence (Q96EB6 1-747): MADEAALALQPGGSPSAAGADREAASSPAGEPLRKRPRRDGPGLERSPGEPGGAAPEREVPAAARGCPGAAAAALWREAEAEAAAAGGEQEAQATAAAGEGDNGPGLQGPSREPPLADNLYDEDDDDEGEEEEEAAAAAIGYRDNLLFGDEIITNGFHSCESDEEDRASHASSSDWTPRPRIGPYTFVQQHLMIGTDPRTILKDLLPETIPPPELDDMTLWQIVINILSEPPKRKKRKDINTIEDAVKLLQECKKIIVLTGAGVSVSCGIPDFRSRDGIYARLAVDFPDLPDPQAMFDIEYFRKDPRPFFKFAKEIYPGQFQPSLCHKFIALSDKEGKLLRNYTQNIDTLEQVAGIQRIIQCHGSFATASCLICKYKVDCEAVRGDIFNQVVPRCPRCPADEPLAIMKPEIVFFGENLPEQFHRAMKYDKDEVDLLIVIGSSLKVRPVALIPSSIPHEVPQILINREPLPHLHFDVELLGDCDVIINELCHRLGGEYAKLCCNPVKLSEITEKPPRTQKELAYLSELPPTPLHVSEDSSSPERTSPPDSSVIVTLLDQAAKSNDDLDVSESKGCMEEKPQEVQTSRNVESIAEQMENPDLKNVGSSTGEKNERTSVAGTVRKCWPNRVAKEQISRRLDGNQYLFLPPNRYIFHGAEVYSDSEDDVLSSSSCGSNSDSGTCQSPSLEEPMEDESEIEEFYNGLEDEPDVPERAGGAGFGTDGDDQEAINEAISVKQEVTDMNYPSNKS
In words: SIRT1 fluorescent deacetylation assay (p53-382 acetylated peptide substrate). Type of data set: biochemical.

For data set [6], the system named is rDNA silencing (RDN1::URA3). Nature of the data set: Ribosomal DNA silencing assay (URA3 reporter). Type of data set: cell-based, S. cerevisiae. As for the experimental part:
Yeast lifespans were determined as in FIG. 2. […] Frequencies were determined by loss of the ADE2 marker gene from the rDNA locus (RDN1). […] Pre-treated cells (RDN1::URA3) were harvested and spotted as 10-fold serial dilutions on either SC or SC with 5-fluororotic acid (5-FOA). In this assay, increased rDNA silencing results in increased survival on 5-FOA medium.
Ribosomal DNA silencing assays using the URA3 reporters were performed as previously described by Bitterman et al. (J Biol Chem 277, 45099-107 (2002)). Ribosomal DNA recombination frequencies were determined by plating W303AR cells (Sinclair, D. A. and Guarente, L. Cell 91, 1033-42 (1997)) on YPD medium with low adenine/histidine and counting the fraction of half-red sectored colonies using Bio-Rad Quantity One software as described by Anderson et al. (J Biol Chem 277, 18881-90. (2002)). At least 6000 cells were analyzed per experiment and all experiments were performed in triplicate. All strains were pre-grown for 15 hours with the relevant compound prior to plating.

[7] abbreviates: 25 μM NAD+, 25 μM p53-382 acetylated peptide.

As for `Oc1ccc(/C=C/c2cc(O)cc(O)c2)cc1` [Resveratrol, 3,5,4′-Trihydroxy-trans-stilbene], in the data set with S. cerevisiae [1], the “Effect on maximum lifespan” value is “significantly increased” and the “Increase of average lifespan” value was 70%. Besides, the “Effect on chronological lifespan” value in the data set with S. cerevisiae [2] was “failed to extend”. Besides, the half-life at 50 µM in data set [3] was 59 h. Further, in data set [4] (sir2 strain), the “rDNA recombination in a sir2 strain” value is given as “does not suppress”. In data set [4] (with the Sir2 inhibitor nicotinamide), the “rDNA recombination in the presence of nicotinamide” value is on record as “decreased”. Besides, at human recombinant SIRT2, the “Effect on SIRT2 activity” value is reported as “decrease”. Further, in the data set with S. cerevisiae [5] (pnc1 null mutant), the “Extension of the lifespan of a pnc1 null mutant” value is “nearly as well as it did wild type cells”. In addition, the “Lifespan benefit of concentrations higher than 10 μM” value in the data set on S. cerevisiae [5] (resveratrol 100 μM, 500 μM) is given as “no added lifespan benefit”. Besides, the “Effect on the lifespan of a sir2 null mutant” value in the data set with S. cerevisiae [5] (sir2 null mutant) is “no effect”. In addition, the “Apparent Km for NAD+ and acetylated substrate” value at recombinant human SIRT1 (5 μM resveratrol in the presence of 50 μM nicotinamide) is given as “raised”. On recombinant human SIRT1 (setting [7]), the “Concentration at which the activating effect doubled the rate” value was approximately 11 µM and the “Concentration at which the activating effect was essentially saturated” value is approximately 100 µM. In addition, the “Effect on the two Vmax determinations” value at recombinant human SIRT1 (100 μM resveratrol) is recorded as “no significant effect”. Also, at recombinant human SIRT1 (100 μM resveratrol, 1 mM p53-382 acetylated peptide), the “Lowering of Km for NAD+” value is listed as “over 5 fold”. Also, the “Decrease of acetylated peptide Km” value on recombinant human SIRT1 (100 μM resveratrol, 3 mM NAD+) is on record as 35 fold. The “Km for both NAD+ and acetylated peptide” value on recombinant human SIRT1 (20 and 100 μM resveratrol in the presence of 50 μM nicotinamide) is given as “lowers”. The “Vmax, NAD+ varied” value on recombinant human SIRT1 (+100 μM resveratrol, 1 mM p53-382 acetylated peptide (control 1863)) was found to be 1749 AFU/min. Further, on recombinant human SIRT1 (+100 μM resveratrol, 3 mM NAD+ (control 1107)), the “Vmax, p53-382 acetylated peptide varied” value was determined as 926 AFU/min. In data set [6], the “Effect on rDNA silencing” value is “only minor effects”.
